Earlier results in patent US20260193295A1, “CILAGICIN COMPOUNDS AND METHODS OF USE THEREOF” (priority 2022, published 2026).
≈ marks a conversion by molar mass, not a printed value. Like-named read-outs stand apart in the source and are kept apart here.

System: vancomycin-resistant Enterococci clinical isolates
Settings: cited from earlier work
[1] = Enterococci clinical isolate code 781
[2] = Enterococci clinical isolate code 782
[3] = Enterococci clinical isolate code 783
[4] = Enterococci clinical isolate code 784
[5] = Enterococci clinical isolate code 785
[6] = Enterococci clinical isolate code 786
[7] = Enterococci clinical isolate code 787
[8] = Enterococci clinical isolate code 788
[9] = Enterococci clinical isolate code 789
[10] = Enterococci clinical isolate code 790
[11] = Enterococci clinical isolate code 791
[12] = Enterococci clinical isolate code 792
[13] = Enterococci clinical isolate code 793
[14] = Enterococci clinical isolate code 794
[15] = Enterococci clinical isolate code 795
[16] = Enterococci clinical isolate code 796
[17] = Enterococci clinical isolate code 797
[18] = Enterococci clinical isolate code 798
[19] = Enterococci clinical isolate code 799
[20] = Enterococci clinical isolate code 800
[21] = Enterococci clinical isolate code 801
[22] = Enterococci clinical isolate code 802
[23] = Enterococci clinical isolate code 803
[24] = Enterococci clinical isolate code 804
[25] = Enterococci clinical isolate code 805
[26] = Enterococci clinical isolate code 806
[27] = Enterococci clinical isolate code 807
[28] = Enterococci clinical isolate code 808
[29] = Enterococci clinical isolate code 809
[30] = Enterococci clinical isolate code 810

| Compound | MIC [1] [µg/mL] | MIC [2] [µg/mL] | MIC [3] [µg/mL] | MIC [4] [µg/mL] | MIC [5] [µg/mL] | MIC [6] [µg/mL] | MIC [7] [µg/mL] | MIC [8] [µg/mL] | MIC [9] [µg/mL] | MIC [10] [µg/mL] | MIC [11] [µg/mL] | MIC [12] [µg/mL] | MIC [13] [µg/mL] | MIC [14] [µg/mL] | MIC [15] [µg/mL] | MIC [16] [µg/mL] | MIC [17] [µg/mL] | MIC [18] [µg/mL] | MIC [19] [µg/mL] | MIC [20] [µg/mL] | further results |
| --- | --- | --- | --- | --- | --- | --- | --- | --- | --- | --- | --- | --- | --- | --- | --- | --- | --- | --- | --- | --- | --- |
| O=C(N[C@H](CO)[C@H](O)c1ccc([N+](=O)[O-])cc1)C(Cl)Cl [Chloramphenicol] | 8 (≈ 24.8 µM) | >32 | 16 (≈ 49.5 µM) | 4 (≈ 12.4 µM) | >32 | 16 (≈ 49.5 µM) | 32 (≈ 99 µM) | 8 (≈ 24.8 µM) | 16 (≈ 49.5 µM) | 8 (≈ 24.8 µM) | 8 (≈ 24.8 µM) | 4 (≈ 12.4 µM) | 8 (≈ 24.8 µM) | 8 (≈ 24.8 µM) | 32 (≈ 99 µM) | 8 (≈ 24.8 µM) | 8 (≈ 24.8 µM) | 16 (≈ 49.5 µM) | >32 | 16 (≈ 49.5 µM) | MIC [21]: 8 µg/mL (≈ 24.8 µM); MIC [22]: 8 µg/mL (≈ 24.8 µM); MIC [23]: 8 µg/mL (≈ 24.8 µM); MIC [24]: >32 µg/mL; MIC [25]: 8 µg/mL (≈ 24.8 µM); MIC [26]: 8 µg/mL (≈ 24.8 µM); MIC [27]: 32 µg/mL (≈ 99 µM); MIC [28]: 8 µg/mL (≈ 24.8 µM); MIC [29]: 8 µg/mL (≈ 24.8 µM); MIC [30]: 8 µg/mL (≈ 24.8 µM) |
| CC(=O)NC[C@H]1CN(c2ccc(N3CCOCC3)c(F)c2)C(=O)O1 [Linezolid] | 2 (≈ 5.93 µM) | 2 (≈ 5.93 µM) | 2 (≈ 5.93 µM) | 1 (≈ 2.96 µM) | 2 (≈ 5.93 µM) | 2 (≈ 5.93 µM) | 2 (≈ 5.93 µM) | 4 (≈ 11.9 µM) | 2 (≈ 5.93 µM) | 2 (≈ 5.93 µM) | 2 (≈ 5.93 µM) | 1 (≈ 2.96 µM) | 2 (≈ 5.93 µM) | 2 (≈ 5.93 µM) | 1 (≈ 2.96 µM) | 2 (≈ 5.93 µM) | 2 (≈ 5.93 µM) | 4 (≈ 11.9 µM) | 2 (≈ 5.93 µM) | 2 (≈ 5.93 µM) | MIC [21]: 2 µg/mL (≈ 5.93 µM); MIC [22]: 2 µg/mL (≈ 5.93 µM); MIC [23]: 4 µg/mL (≈ 11.9 µM); MIC [24]: 2 µg/mL (≈ 5.93 µM); MIC [25]: 2 µg/mL (≈ 5.93 µM); MIC [26]: 2 µg/mL (≈ 5.93 µM); MIC [27]: 2 µg/mL (≈ 5.93 µM); MIC [28]: 4 µg/mL (≈ 11.9 µM); MIC [29]: 2 µg/mL (≈ 5.93 µM); MIC [30]: 2 µg/mL (≈ 5.93 µM) |
| CN[C@H](CC(C)C)C(=O)N[C@H]1C(=O)N[C@@H](CC(N)=O)C(=O)N[C@H]2C(=O)N[C@H]3C(=O)N[C@H](C(=O)N[C@H](C(=O)O)c4cc(O)cc(O)c4-c4cc3ccc4O)[C@H](O)c3ccc(c(Cl)c3)Oc3cc2cc(c3O[C@@H]2O[C@H](CO)[C@@H](O)[C@H](O)[C@H]2O[C@H]2C[C@](C)(N)[C@H](O)[C@H](C)O2)Oc2ccc(cc2Cl)[C@H]1O [Vancomycin] | >64 | 32 (≈ 22.1 µM) | 64 (≈ 44.2 µM) | 4 (≈ 2.76 µM) | 2 (≈ 1.38 µM) | 32 (≈ 22.1 µM) | >64 | 2 (≈ 1.38 µM) | >64 | >64 | 0.5 (≈ 0.345 µM) | >64 | 1 (≈ 0.69 µM) | >64 | 32 (≈ 22.1 µM) | 8 (≈ 5.52 µM) | 2 (≈ 1.38 µM) | 2 (≈ 1.38 µM) | >64 | 64 (≈ 44.2 µM) | MIC [21]: 4 µg/mL (≈ 2.76 µM); MIC [22]: >64 µg/mL; MIC [23]: >64 µg/mL; MIC [24]: 16 µg/mL (≈ 11 µM); MIC [25]: 1 µg/mL (≈ 0.69 µM); MIC [26]: 0.5 µg/mL (≈ 0.345 µM); MIC [27]: >64 µg/mL; MIC [28]: 4 µg/mL (≈ 2.76 µM); MIC [29]: >64 µg/mL; MIC [30]: 1 µg/mL (≈ 0.69 µM) |
| Penicillin | 2 | 2 | >32 | 2 | 4 | 1 | 32 | 1 | ≤0.12 | >32 | 2 | >32 | 2 | >32 | 4 | 2 | 0.5 | 1 | 2 | 2 | MIC [21]: 1 µg/mL; MIC [22]: >32 µg/mL; MIC [23]: >32 µg/mL; MIC [24]: 4 µg/mL; MIC [25]: 2 µg/mL; MIC [26]: 8 µg/mL; MIC [27]: >32 µg/mL; MIC [28]: 2 µg/mL; MIC [29]: 1 µg/mL; MIC [30]: 2 µg/mL |
| Teicoplanin | >64 | 0.5 | 2 | 0.5 | 0.5 | 0.25 | >64 | 1 | >64 | 1 | 0.5 | 1 | 0.5 | 64 | 0.5 | 1 | 1 | 1 | 0.5 | 0.5 | MIC [21]: 1 µg/mL; MIC [22]: 64 µg/mL; MIC [23]: >64 µg/mL; MIC [24]: 0.5 µg/mL; MIC [25]: 0.5 µg/mL; MIC [26]: 1 µg/mL; MIC [27]: 1 µg/mL; MIC [28]: 0.5 µg/mL; MIC [29]: 64 µg/mL; MIC [30]: 0.5 µg/mL |
| CO[C@H]1/C=C/O[C@@]2(C)Oc3c(C)c(O)c4c(O)c(c(/C=N/N5CCN(C)CC5)c(O)c4c3C2=O)NC(=O)/C(C)=C\C=C\[C@H](C)[C@H](O)[C@@H](C)[C@@H](O)[C@@H](C)[C@H](OC(C)=O)[C@@H]1C [Rifampin] | 1 (≈ 1.22 µM) | 1 (≈ 1.22 µM) | >4 | ≤0.25 | 2 (≈ 2.43 µM) | 2 (≈ 2.43 µM) | ≤0.25 | >4 | >4 | >4 | 1 (≈ 1.22 µM) | 4 (≈ 4.86 µM) | 4 (≈ 4.86 µM) | 4 (≈ 4.86 µM) | 2 (≈ 2.43 µM) | >4 | 4 (≈ 4.86 µM) | ≤0.25 | 2 (≈ 2.43 µM) | 2 (≈ 2.43 µM) | MIC [21]: 0.5 µg/mL (≈ 0.608 µM); MIC [22]: ≤0.25 µg/mL; MIC [23]: >4 µg/mL; MIC [24]: 2 µg/mL (≈ 2.43 µM); MIC [25]: 2 µg/mL (≈ 2.43 µM); MIC [26]: >4 µg/mL; MIC [27]: >4 µg/mL; MIC [28]: >4 µg/mL; MIC [29]: 2 µg/mL (≈ 2.43 µM); MIC [30]: 2 µg/mL (≈ 2.43 µM) |
| Gentamicin | ≤500 | >500 | >500 | ≤500 | >500 | >500 | ≤500 | ≤500 | >500 | ≤500 | ≤500 | >500 | ≤500 | >500 | >500 | ≤500 | ≤500 | ≤500 | >500 | >500 | MIC [21]: >500 µg/mL; MIC [22]: >500 µg/mL; MIC [23]: >500 µg/mL; MIC [24]: >500 µg/mL; MIC [25]: ≤500 µg/mL; MIC [26]: ≤500 µg/mL; MIC [27]: ≤500 µg/mL; MIC [28]: ≤500 µg/mL; MIC [29]: ≤500 µg/mL; MIC [30]: ≤500 µg/mL |
| [H]/N=C(/N)N[C@H]1[C@H](O)[C@@H](O)[C@H](O[C@@H]2O[C@@H](C)[C@](O)(C=O)[C@H]2O[C@@H]2O[C@@H](CO)[C@H](O)[C@@H](O)[C@@H]2NC)[C@@H](N/C(N)=N\[H])[C@@H]1O [Streptomycin] | ≤1000 | >1000 | >1000 | ≤1000 | >1000 | ≤1000 | >1000 | ≤1000 | >1000 | >1000 | ≤1000 | ≤1000 | ≤1000 | >1000 | >1000 | ≤1000 | ≤1000 | ≤1000 | >1000 | ≤1000 | MIC [21]: ≤1000 µg/mL; MIC [22]: >1000 µg/mL; MIC [23]: >1000 µg/mL; MIC [24]: >1000 µg/mL; MIC [25]: ≤1000 µg/mL; MIC [26]: ≤1000 µg/mL; MIC [27]: >1000 µg/mL; MIC [28]: ≤1000 µg/mL; MIC [29]: >1000 µg/mL; MIC [30]: >1000 µg/mL |
